Assay results reported in patent US7932290B2, “Method for the treatment of metabolic disorders” (Wellstat Biologics Corporation, priority 2003, dated 2011).

Assays:
db/db mice [1] = assay: Antidiabetic effects in db/db mice, Example C (17 days daily oral dosing); assay type: in vivo, mouse; conditions: 300 mg/kg daily oral
Text: C57BL/Ksola (db/db) mice have a defect in leptin signaling, leading to hyperphagia, obesity and diabetes. Moreover, unlike ob/ob mice on a C57BL/6J background, db/db mice on a C57BLKS background undergo failure of their insulin-producing pancreatic islet cells, resulting in progression from hyperinsulinemia (associated with peripheral insulin resistance) to hypoinsulinemic diabetes.
(§1) Male obese (db/db homozygote) C57BL/Ksola mice approximately 8 weeks of age, were obtained from Jackson Labs (Bar Harbor, Me.) and sorted into groups of 7 animals each animals such that the body weights (40-45 g) and serum glucose levels (≧300 mg/dl in fed state) were similar between groups. A minimum of 7 days was allowed for adaptation after arrival. All animals were maintained under controlled temperature (23° C.), relative humidity (50±5%) and light (7:00-19:00), and allowed free access to standard chow (Formulab Diet 5008, Quality Lab Products, Elkridge, Md.) and water.
Treatment cohorts were given daily oral doses of vehicle (1% hydroxypropylmethylcellulose), Compounds BI, CF, CG, or phenylacetate for 17 days. At the end of the treatment period, blood samples were collected and serum glucose and triglycerides were measured.

[2] = tested on: Human PPARγ LBD fusion protein; assay: Transcription activation potential, GAL4 luciferase reporter in C3A cells; assay type: cell-based
Procedure: (§2) Cells were seeded in 24 well plates the day prior to transfection at 5×10^4−2×10^5 cells/well, depending upon cell type. Cells were transfected using Lipofectamine 2000 reagent from Invitrogen. A total of 0.8 μg DNA/well was added to 50 μL of Optimem Reduced Serum media (serum free; Gibco). Lipofectamine 2000 was added (2.5 μL/well) to another tube containing 50 μL of Optimem media. Plasmid DNA was added at a ratio of 4:3 (reporter:activator); where appropriate, salmon sperm DNA was substituted for activator expressing plasmid. […] DNA constructs containing the mouse PPARα or PPARγ LBD fused to the GAL4 DNA binding domain were also used. The two solutions were incubated at room temperature for 5 min, and then combined. The combined solution was incubated at room temperature for approximately 30 min. Cells were washed once with PBS, and 100 μL of transfection mix added to each well. Plates were incubated at 37° C. in a 5% CO2 incubator for 4.5 hr, followed by aspiration of the transfection mix, with plates refed using EMEM complete media (supplemented with 10% FBS, 1× Glutamine). 24 hr post-transfection, plates were treated with the appropriate compounds in EMEM complete media, followed by washing once with PBS and addition of 100 μL 1× reporter lysis buffer/well (Promega) 24 hr after treatment. Plates went through one freeze/thaw cycle prior to analysis. Approximately 10 μL of lysate was added to 100 μL of firefly luciferase substrate, mixed by pipetting, and analyzed on a luminometer for 10 s using the integration function (relative luciferase units/RLU) or on a Microbeta Trilux (luciferase counts per second/LCPS). Each treatment was performed in triplicate, and in multiple, separate experiments.

[3] = target: T1, Mouse PPARγ LBD fusion protein (Mus musculus, UniProt P37238); assay: as above; assay type: cell-based; conditions: Table 20b
T1 sequence (P37238 238-503): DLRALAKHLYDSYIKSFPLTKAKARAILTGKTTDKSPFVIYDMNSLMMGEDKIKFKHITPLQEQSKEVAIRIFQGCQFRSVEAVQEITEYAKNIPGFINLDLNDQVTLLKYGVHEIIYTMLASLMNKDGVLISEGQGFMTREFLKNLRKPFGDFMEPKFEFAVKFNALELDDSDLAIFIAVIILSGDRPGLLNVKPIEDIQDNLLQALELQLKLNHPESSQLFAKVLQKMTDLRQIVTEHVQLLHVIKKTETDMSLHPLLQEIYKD
Procedure: as §2

db/db mice [4] = assay: Antidiabetic effects in db/db mice, Example B (2 weeks daily oral dosing); assay type: in vivo, mouse
Text: db/db mice have a defect in leptin signaling, leading to hyperphagia, obesity and diabetes. Moreover, unlike ob/ob mice on a C57BL/6J background, db/db mice on a C57BL/KS background undergo failure of their insulin-producing pancreatic islet cells, resulting in progression from hyperinsulinemia (associated with peripheral insulin resistance) to hypoinsulinemic diabetes.
as §1, with “randomly assigned” for “sorted”, “5-7” for “7 animals each”, “(50-55” for “(40-45”, “groups; male lean (db/+heterozygote) mice served as cohort controls.” for “groups.”
Treatment cohorts were given daily oral doses of Vehicle (1% hydroxypropylmethylcellulose), Compounds BI, CE, BT, BV, […] or Fenofibrate for 2 weeks. At the end of the treatment period 100 μl of venous blood was withdrawn in a heparinized capillary tube from the retro-orbital sinus of db/db mice for serum chemistry analysis.

[5] = target: T2, Human PPARα LBD fusion protein (Homo sapiens, UniProt Q07869); assay: Transcription activation potential, GAL4 luciferase reporter in C3A cells; assay type: cell-based
T2 construct: a.a; 167-468)
T2 sequence (Q07869 167-468): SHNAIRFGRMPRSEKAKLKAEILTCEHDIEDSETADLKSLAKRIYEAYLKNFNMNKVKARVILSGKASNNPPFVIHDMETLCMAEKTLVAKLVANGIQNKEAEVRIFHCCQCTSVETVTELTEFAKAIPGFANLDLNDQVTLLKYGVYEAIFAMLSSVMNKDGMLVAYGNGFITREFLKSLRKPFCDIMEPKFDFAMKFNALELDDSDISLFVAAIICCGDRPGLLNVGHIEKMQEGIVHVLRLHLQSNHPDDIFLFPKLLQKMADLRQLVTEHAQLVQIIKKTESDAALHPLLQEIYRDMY
Procedure: (§3) Cells were seeded in 24 well plates the day prior to transfection at 5×10^4−2×10^5 cells/well, depending upon cell type. Cells were transfected using Lipofectamine 2000 reagent from Invitrogen. A total of 0.8 μg DNA/well was added to 50 μL of Optimem Reduced Serum media (serum free; Gibco). Lipofectamine 2000 was added (2.5 μL/well) to another tube containing 50 μL of Optimem media. Plasmid DNA was added at a ratio of 4:3 (reporter:activator); where appropriate, salmon sperm DNA was substituted for activator expressing plasmid. The reporter plasmid used was pFR-Luc, which has the firefly luciferase gene under the control of a GAL4 UAS ([…]) containing promoter. The activator expressing plasmids contain yeast GAL4 DNA binding domain (dbd) fusion of either human PPARα ligand binding domain (LBD; a.a. 167-468) or human PPARγ LBD (a.a. 176-479). DNA constructs containing the mouse PPARα or PPARγ LBD fused to the GAL4 DNA binding domain were also used. The two solutions were incubated at room temperature for 5 min, and then combined. The combined solution was incubated at room temperature for approximately 30 min. Cells were washed once with PBS, and 100 μL of transfection mix added to each well. Plates were incubated at 37° C. in a 5% CO2 incubator for 4.5 hr, followed by aspiration of the transfection mix, with plates refed using EMEM complete media (supplemented with 10% FBS, 1× Glutamine). 24 hr post-transfection, plates were treated with the appropriate compounds in EMEM complete media, followed by washing once with PBS and addition of 100 μL 1× reporter lysis buffer/well (Promega) 24 hr after treatment. Plates went through one freeze/thaw cycle prior to analysis. Approximately 10 μL of lysate was added to 100 μL of firefly luciferase substrate, mixed by pipetting, and analyzed on a luminometer for 10 s using the integration function (relative luciferase units/RLU) or on a Microbeta Trilux (luciferase counts per second/LCPS). Each treatment was performed in triplicate, and in multiple, separate experiments.

[6] = target: T3, Mouse PPARα LBD fusion protein (Mus musculus, UniProt P23204); assay: as above; assay type: cell-based; conditions: Table 20a
T3 sequence (P23204 239-466): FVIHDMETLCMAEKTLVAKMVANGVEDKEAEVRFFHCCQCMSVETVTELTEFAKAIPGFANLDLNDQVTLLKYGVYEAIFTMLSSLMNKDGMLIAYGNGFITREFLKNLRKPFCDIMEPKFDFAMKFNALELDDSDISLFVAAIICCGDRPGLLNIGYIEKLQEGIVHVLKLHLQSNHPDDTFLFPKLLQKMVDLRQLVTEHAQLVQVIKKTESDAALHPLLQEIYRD
Procedure: as §3

[7] = serum, 2 weeks daily oral, dose not given in Table 17 (see Table 16)

`O=C(O)Cc1ccccc1` [Phenylacetate, reference compound] was tested, and the “Glucose mg/dL (±SEM)” value (db/db mice [1]) was 661 ± 64 mg/dL and the “Triglycerides” value (db/db mice [1]) was 171 ± 33 mg/dL.
For `Cc1cccc(C)c1COc1cccc(CCCC(=O)O)c1` [CE, 4-(3-(2,6-Dimethylbenzyloxy)phenyl)butyric acid], the “transcription activation potential (luciferase) ± standard deviation” value ([2]; 1 μM test compound) was 60 ± 11.6 LCPS, the “transcription activation potential (luciferase) ± standard deviation” value ([2]; 3 μM test compound) was 73.3 ± 30.9 LCPS and the “transcription activation potential (luciferase) ± standard deviation” value ([2]; 10 μM test compound) was 57.3 ± 22.6 LCPS. The “transcription activation potential (luciferase) ± standard deviation” value ([2]; 30 μM test compound) was 28.5 ± 16.4 LCPS, the “transcription activation potential (luciferase) ± standard deviation” value ([2]; 100 μM test compound) was 37.7 ± 23.4 LCPS and the “transcription activation potential (luciferase) ± standard deviation” value ([2]; 200 μM test compound) was 12.3 ± 4.8 LCPS. The “transcription activation potential (luciferase) ± standard deviation” value ([3]; 1 μM test compound) was 14.3 ± 4.5 LCPS, the “transcription activation potential (luciferase) ± standard deviation” value ([3]; 3 μM test compound) was 13.43 ± 8.5 LCPS and the “transcription activation potential (luciferase) ± standard deviation” value ([3]; 10 μM test compound) was 6.03 ± 3.75 LCPS. The “transcription activation potential (luciferase) ± standard deviation” value ([3]; 30 μM test compound) was 9.6 ± 5.46 LCPS, the “transcription activation potential (luciferase) ± standard deviation” value ([3]; 100 μM test compound) was 11.7 ± 11.7 LCPS and the “transcription activation potential (luciferase) ± standard deviation” value ([3]; 200 μM test compound) was 10.5 ± 9.2 LCPS. The “Glucose (% of Control)” value (db/db mice [4]; 93 mg/kg daily oral, 2 weeks) was 54 ± 8 % of Control, the “Glucose” value (db/db mice [4]; nonfasting, 93 mg/kg daily oral, 2 weeks) was 372.0 ± 53.8 mg/dL and the “Free Fatty Acids ± SEM” value (db/db mice [4]; [7]) was 2867.4 ± 267.7 µM. The “Triglycerides ± SEM” value (db/db mice [4]; [7]) was 132.0 ± 15.2 mg/dL, the “transcription activation potential (luciferase) ± standard deviation” value ([5]; 1 μM) was 14.7 ± 14.6 LCPS and the “transcription activation potential (luciferase) ± standard deviation” value ([5]; 3 μM) was 13.2 ± 5.8 LCPS. For the same compound, the “transcription activation potential (luciferase) ± standard deviation” value ([5]; 10 μM) was 26.2 ± 1.4 LCPS, the “transcription activation potential (luciferase) ± standard deviation” value ([5]; 30 μM) was 10.67 ± 1.2 LCPS and the “transcription activation potential (luciferase) ± standard deviation” value ([5]; 100 μM) was 6.33 ± 2.6 LCPS. The “transcription activation potential (luciferase) ± standard deviation” value ([5]; 200 μM) was 12.8 ± 3.7 LCPS, the “transcription activation potential (luciferase) ± standard deviation” value ([6]; 1 μM) was 9.47 ± 2.14 LCPS and the “transcription activation potential (luciferase) ± standard deviation” value ([6]; 3 μM) was 9.57 ± 2.61 LCPS. For the same compound, the “transcription activation potential (luciferase) ± standard deviation” value ([6]; 10 μM) was 1.17 ± 2.49 LCPS, the “transcription activation potential (luciferase) ± standard deviation” value ([6]; 30 μM) was 7.4 ± 0.23 LCPS and the “transcription activation potential (luciferase) ± standard deviation” value ([6]; 100 μM) was 6.13 ± 0.17 LCPS. For the same compound, the “transcription activation potential (luciferase) ± standard deviation” value ([6]; 200 μM) was 8 ± 1.88 LCPS.
